According to article PMC6182381, “Population Pharmacokinetics and Exposure-Response Relationships of Naldemedine” (Pharmaceutical Research, 2018):
Like-named read-outs stand apart in the source and are kept apart here.

Experiments:
[1] = Population PK analysis of plasma naldemedine concentrations (NONMEM, 2-compartment model); format: in vivo, human; conditions: for AUC: human, plasma, oral
Method: A population PK model was developed with pooled naldemedine concentrations from healthy subjects, patients with chronic non-cancer pain and OIC, and cancer patients with OIC as described in Table I. Blood sampling times for PK analysis in each study are shown in Supplemental Table S1. All studies were performed in accordance with the Declaration of Helsinki, the International Conference on Harmonization (ICH) E6 Guidance for Good Clinical Practice and all other applicable regulatory requirements. Study protocols were approved by the responsible institutional review boards. Written informed consent for each clinical study was obtained from all subjects.
Background data available for subjects were summarized and used as candidate covariates: age, body weight, body mass index (BMI), albumin (ALBU), aspartate aminotransferase (AST) and alanine aminotransferase (ALT), total bilirubin (Tbil), and creatinine clearance (CLcr) at baseline as continuous data, and gender (male, female), race/ethnicity (“White” or “non-White”, “Japanese” or “non-Japanese”, “Hispanic or Latino” or “non-Hispanic or non-Latino”), health status (healthy subjects/ Patients with chronic non-cancer pain and OIC/ Cancer patients with OIC), dosing conditions (dosing in the fasted/fed state, with/without concomitant use of P-gp/CYP3A inhibitor/inducer), and formulation (“solution or suspension”, “phase 1 or 2 tablet”, “phase 3 tablet”) as categorical data. Background data at baseline were obtained from observations prior to or on the first day of dosing, or at screening if this value was not available. Categorical age (<65 years or ≥ 65 years) was also used. CLcr was calculated using the Cockcroft-Gault eq. ([12]). Data from the concomitant treatment period in the phase 1 DDI studies [1202 V9218, 1403V921D, and 1502V921E]), in which co-administrations of P-gp/CYP3A inhibitor/inducer (cyclosporine, rifampin, itraconazole, or fluconazole) with naldemedine were designed as the worst case scenario for each inhibitor/inducer (single dose of cyclosporine 600 mg, rifampin 600 mg for 17 days, itraconazole 200 mg for 7 days, fluconazole 200 mg for 7 days), were excluded from the population PK analysis because they were not clinically relevant to the OIC treatment. Food condition was assumed as fasted in phase 2b studies (1107 V9221 and 1108 V9222), in which the date/time of food intake had not been recorded. Food condition was defined as fasted in cases where naldemedine was administered more than 1 h after the food intake in phase 3 studies (1314 V9231, 1315 V9232, 1331 V9236, 1336 V9238, and 1339 V9239).
The bioanalytical methods for determination of concentrations of naldemedine and its metabolites in human plasma were validated with the lower limit of quantification (LLOQ) being 0.01 ng/ml for naldemedine ([11]). Plasma samples were analyzed after solid phase extraction by a liquid chromatography/mass spectrometry/mass spectrometry (LC/MS/MS) method using the positive ion mode and multiple reaction monitoring. All the analytical methods were validated across the calibration range with respect to selectivity, recovery, accuracy, precision, and stability under a variety of conditions.
The population PK analysis was performed by using the non-linear mixed effect modeling software NONMEM (version 7.3, ICON Development Solutions, US), with PREDPP library and NM-TRAN preprocessor ([13]). To support analyses by NONMEM, Perl-speaks-NONMEM (PsN) (version 4.2) and Xpose (version 4.2.1) were used ([14]). The first order conditional estimation with interaction (FOCE-I) method was used for the analysis.
The PK profiles of naldemedine were examined using conventional compartment disposition models with first order absorption based on the PK in healthy volunteers ([11]). To determine the basic structural PK model for naldemedine, 1-, 2- and 3-compartment models with first order absorption were tested. […]

[2] = test system: patients with chronic non-cancer pain and OIC; parameters: method as in PMID 28576452; conditions: cited from earlier work
[3] = 1314V9231_1315V9232 (Phase 3), 0.2 mg
[4] = final model, bootstrap estimates

SMILES: CC(C)(NC(=O)C1=C(O)[C@@H]2Oc3c(O)ccc4c3[C@@]23CCN(CC2CC2)[C@H](C4)[C@]3(O)C1)c1nc(-c2ccccc2)no1 [naldemedine]
- Empirical Bayesian-estimated AUCss, Max ([1]; 1107V9221 (Phase 2b), 0.1 mg): 13.49 ng·h/mL
- Empirical Bayesian-estimated AUCss, Min ([1]; 1107V9221 (Phase 2b), 0.1 mg): 7.02 ng·h/mL
- Empirical Bayesian-estimated AUCss, Max ([1]; 1107V9221 (Phase 2b), 0.2 mg): 51.36 ng·h/mL
- Empirical Bayesian-estimated AUCss, Min ([1]; 1107V9221 (Phase 2b), 0.2 mg): 12.66 ng·h/mL
- Empirical Bayesian-estimated AUCss, Max ([1]; 1107V9221 (Phase 2b), 0.4 mg): 74.93 ng·h/mL
- Empirical Bayesian-estimated AUCss, Min ([1]; 1107V9221 (Phase 2b), 0.4 mg): 25.78 ng·h/mL
- Empirical Bayesian-estimated AUCss, Max [1, 3]: 92.1 ng·h/mL
- Empirical Bayesian-estimated AUCss, Min [1, 3]: 5.669 ng·h/mL
- Empirical Bayesian-estimated CL/F, Mean ([1]; 1314V9231_1315V9232, Age 65 -< 75): 7.63 L/h
- Empirical Bayesian-estimated CL/F, Mean ([1]; 1314V9231_1315V9232, Age < 65): 8.89 L/h
- Empirical Bayesian-estimated CL/F, Mean ([1]; 1314V9231_1315V9232, Age >= 65): 7.61 L/h
- Empirical Bayesian-estimated CL/F, Mean ([1]; 1314V9231_1315V9232, Age >= 75): 7.54 L/h
- Empirical Bayesian-estimated CL/F, Mean ([1]; 1314V9231_1315V9232, Asian): 13.1 L/h
- Empirical Bayesian-estimated CL/F, Mean ([1]; 1314V9231_1315V9232, Black): 7.51 L/h
- Empirical Bayesian-estimated CL/F, Mean ([1]; 1314V9231_1315V9232, Female): 8.48 L/h
- Empirical Bayesian-estimated CL/F, Mean ([1]; 1314V9231_1315V9232, Male): 9.08 L/h
- Empirical Bayesian-estimated CL/F, Mean ([1]; 1314V9231_1315V9232, OIC non-Cancer): 8.73 L/h
- Empirical Bayesian-estimated CL/F, Mean ([1]; 1314V9231_1315V9232, White): 9.00 L/h
- Empirical Bayesian-estimated CL/F, Mean ([1]; 1314V9231_1315V9232, non-White): 7.59 L/h
- Empirical Bayesian-estimated CL/F, Mean ([1]; 1314V9231_1315V9232, race Others): 6.36 L/h
- Empirical Bayesian-estimated CL/F, Mean ([1]; 1331V9236 (cancer patients), Age 65 -< 75): 7.15 L/h
- Empirical Bayesian-estimated CL/F, Mean ([1]; 1331V9236 (cancer patients), Age < 65): 7.51 L/h
- Empirical Bayesian-estimated CL/F, Mean ([1]; 1331V9236 (cancer patients), Age >= 65): 7.15 L/h
- Empirical Bayesian-estimated CL/F, Mean ([1]; 1331V9236 (cancer patients), Age >= 75): 7.16 L/h
- Empirical Bayesian-estimated CL/F, Mean ([1]; 1331V9236 (cancer patients), Asian): 7.34 L/h
- Empirical Bayesian-estimated CL/F, Mean ([1]; 1331V9236 (cancer patients), Female): 6.54 L/h
- Empirical Bayesian-estimated CL/F, Mean ([1]; 1331V9236 (cancer patients), Male): 7.85 L/h
- Empirical Bayesian-estimated CL/F, Mean ([1]; 1331V9236 (cancer patients), non-White): 7.34 L/h
- Empirical Bayesian-estimated CL/F, Mean ([1]; 1331V9236, OIC Cancer): 7.34 L/h
- ALAG ([1]; base model): 0.195 h
- CL/F ([1]; base model): 8.20 L/h
- Inter-individual variability of CL/F ([1]; base model): 40.5 CV%
- Inter-individual variability of Ka ([1]; base model): 168.2 CV%
- Inter-individual variability of Q/F ([1]; base model): 50.5 CV%
- Inter-individual variability of Vc/F ([1]; base model): 38.5 CV%
- Inter-individual variability of Vp/F ([1]; base model): 37.7 CV%
- Intra-individual variability, proportional ([1]; base model): 25.6 CV%
- Ka ([1]; base model): 3.81 h⁻¹
- Q/F ([1]; base model): 5.02 L/h
- Vc/F ([1]; base model): 83.6 L
- Vp/F ([1]; base model): 43.2 L
- AUC ([1]; both sexes, 0.2 mg, reference population, 0.2 mg once daily, read-out: typical AUCss): 22 ng·h/mL
- decrease of population predicted AUCss vs reference population ([1]; covariates at extreme values): 25%
- increase of population predicted AUCss vs reference population ([1]; covariates at extreme values): 76%
- ALAG ([1]; final model): 0.195 h
- Inter-individual variability of CL/F ([1]; final model): 37.9 CV%
- Inter-individual variability of Ka ([1]; final model): 161.2 CV%
- Inter-individual variability of Q/F ([1]; final model): 46.3 CV%
- Inter-individual variability of Vc/F ([1]; final model): 25.3 CV%
- Inter-individual variability of Vp/F ([1]; final model): 36.3 CV%
- Intra-individual variability, proportional ([1]; final model): 25.7 CV%
- Q/F ([1]; final model): 4.77 L/h
- THETA (7), effect of non-Cancer OIC patients on Vc/F ([1]; final model): 1.20
- THETA (8), effect of Cancer patients with OIC on Vc/F ([1]; final model): 1.27
- THETA (9), effect of fed condition on Vc/F ([1]; final model): 1.12
- THETA (11), exponent of Age/52 on Ka ([1]; final model): −1.16
- Vp/F ([1]; final model): 41.8 L
- ALAG, bootstrap median [1, 4]: 0.196 h
- CL/F, THETA (1), bootstrap median [1, 4]: 9.15 L/h
- Inter-individual variability of CL/F, bootstrap median [1, 4]: 38.6 CV%
- Inter-individual variability of Ka, bootstrap median [1, 4]: 161.0 CV%
- Inter-individual variability of Q/F, bootstrap median [1, 4]: 47.5 CV%
- Inter-individual variability of Vc/F, bootstrap median [1, 4]: 25.2 CV%
- Inter-individual variability of Vp/F, bootstrap median [1, 4]: 36.2 CV%
- Intra-individual variability, proportional, bootstrap median [1, 4]: 25.5 CV%
- Ka, THETA (10), bootstrap median [1, 4]: 2.90 h⁻¹
- Q/F, bootstrap median [1, 4]: 4.73 L/h
- THETA (7), non-Cancer on Vc/F, bootstrap median [1, 4]: 1.19
- THETA (8), Cancer on Vc/F, bootstrap median [1, 4]: 1.28
- THETA (9), fed condition on Vc/F, bootstrap median [1, 4]: 1.12
- THETA (11), Age on Ka, bootstrap median [1, 4]: −1.23
- Vc/F, THETA (6), bootstrap median [1, 4]: 76.0 L
- Vp/F, bootstrap median [1, 4]: 41.6
- Ka, THETA (10) ([1]; final model, age 52): 2.94 h⁻¹
- Vc/F, THETA (6) ([1]; final model, healthy subjects, body weight 76 kg, fasted): 75.9 L
- Vc/F ([1]; final model, reference population: 76 kg, non-cancer OIC patients, fasted): 91.1 L
- CL/F, THETA (1) ([1]; final model, reference: 52-year-old, male, White, CLcr 108 ml/min): 9.10 L/h
- AUC ([1]; 0.1 mg, 1107V9221 (Phase 2b), 0.1 mg, read-out: Empirical Bayesian-estimated AUCss, Geometric Mean): 10.2 ng·h/mL
- AUC ([1]; 0.1 mg, 1107V9221 (Phase 2b), 0.1 mg, read-out: Empirical Bayesian-estimated AUCss, Mean): 10.5 ng·h/mL
- AUC ([1]; 0.1 mg, 1107V9221 (Phase 2b), 0.1 mg, read-out: Empirical Bayesian-estimated AUCss, Median): 10.4 ng·h/mL
- AUC ([1]; 0.2 mg, 1107V9221 (Phase 2b), 0.2 mg, read-out: Empirical Bayesian-estimated AUCss, Geometric Mean): 20.3 ng·h/mL
- AUC ([1]; 0.2 mg, 1107V9221 (Phase 2b), 0.2 mg, read-out: Empirical Bayesian-estimated AUCss, Mean): 22.1 ng·h/mL
- AUC ([1]; 0.2 mg, 1107V9221 (Phase 2b), 0.2 mg, read-out: Empirical Bayesian-estimated AUCss, Median): 20.2 ng·h/mL
- AUC ([1]; 0.2 mg, 1314V9231_1315V9232 (Phase 3), 0.2 mg, read-out: Empirical Bayesian-estimated AUCss, Geometric Mean): 25.1 ng·h/mL
- AUC ([1]; 0.2 mg, 1314V9231_1315V9232 (Phase 3), 0.2 mg, read-out: Empirical Bayesian-estimated AUCss, Mean): 27.5 ng·h/mL
- AUC ([1]; 0.2 mg, 1314V9231_1315V9232 (Phase 3), 0.2 mg, read-out: Empirical Bayesian-estimated AUCss, Median): 24.5 ng·h/mL
- AUC ([1]; 0.4 mg, 1107V9221 (Phase 2b), 0.4 mg, read-out: Empirical Bayesian-estimated AUCss, Geometric Mean): 41.6 ng·h/mL
- AUC ([1]; 0.4 mg, 1107V9221 (Phase 2b), 0.4 mg, read-out: Empirical Bayesian-estimated AUCss, Mean): 43.8 ng·h/mL
- AUC ([1]; 0.4 mg, 1107V9221 (Phase 2b), 0.4 mg, read-out: Empirical Bayesian-estimated AUCss, Median): 38.2 ng·h/mL
- Treatment-related adverse events (patients) ([2]; Study 1314 V9231, 59 of 271 patients): 22%
- Treatment-related adverse events (patients) ([2]; Study 1315 V9232, 54 of 271 patients): 20%
